Measured values: patent US11054413B2, “Materials and methods for assaying living cells” (UNIVERSITY OF MARYLAND, COLLEGE PARK, priority 2014, dated 2021)
“Also recorded” adds a separate entry of the source.

What was measured:
MCF-7 cells = experiment: Tethering washing, cell retention; assay type: cell-based, human
Procedure: (§1) MDA-MB-436 and MCF-7 cells were seeded on PEM coated micro-slides with 4 bilayers and addition of DOPC or DOTAP (50,000 cells/channel). Cells were incubated for 1 h to allow for tethering. To quantify initial cell number, three images per channel were taken for each condition at time 0. After 1 h, existing media was gently removed from the bottom port of each channel and fresh media was added to the top port. Following a wash, three images were taken per channel for each condition using an Olympus CKX41 microscope at 4× magnification. This process was repeated for each wash. The area of the image occupied with cells (as a percent) was quantified using CellProfiler and the average from three images was calculated. The average percentage for each condition was then normalized to the area occupied at time 0.

MDA-MB-436 cells [1] = experiment: Tethering washing, cell retention; assay type: cell-based, human
Procedure: as §1

tumor cells [2] = experiment: Retention of tethered cells after formaldehyde crosslinking of DOTAP to PEM (FIG. 38B); assay type: cell-based; conditions: DOTAP crosslinked to PEM with formaldehyde vs charge interaction, multiple washes
Source text: FIG. 38. PEM coating for McTN studies.
We assembled PEMs from alternating layers of polymethacrylic acid (PMA) and polyacrylamide (PAAm) to coat microfluidic channels with very thin (100-1000 Angstroms) multilayers that retain high optical clarity. […] This crosslinking approach enables us to conduct improved imaging, time-dependent drug treatments without causing cell drift, but also illustrates that photo-crosslinking could be used to develop patterned arrays to facilitate tumor cell mechanical measurements and cell fate studies.

SkBr3 cells [3] = conditions: Balzer et al. 2010, see FIG. 4; cited from earlier work
SkBr3 cells [4] = experiment: McTN scoring in detached SkBr3 cells, confocal microscopy for tubulin (FIG. 4); assay type: cell-based; conditions: nonmetastatic SkBr3 cells
Source text: FIG. 4. Targeting cell division can increase McTNs. […] (Bars=mean±S.D from 3 expts. with McTNs scored blindly).

Patient-derived cells = experiment: McTN and stem cell responses of patient-derived cells to drugs (Table 2, predicted); assay type: cell-based, human; conditions: 30 minutes at the concentration given
Procedure: Patient-derived cells are treated with either vehicle (0.1% DMSO) or each of the drugs in Table 2 at the indicated concentration for 30 minutes and then analyzed for McTN incidence.

epithelial cells = conditions: Liu et al. 2012; Suprynowicz et al. 2012; cited from earlier work
MDA-MB-436 cells [5] = experiment: Real-time McTN imaging of PEM-DOTAP tethered cells with drug treatment (FIG. 29B); assay type: cell-based, human; conditions: for McTN formation: PEM-DOTAP tether; for McTN dynamics over time: compared to vehicle control, time-lapse
Procedure: FIG. 29. Lipid tethering allows for real-time microtentacle imaging in response to drug treatment and minimizes effects of drift. (A) Microtentacle (arrows) imaging of MDA-MB-436 cells seeded on micro-slides with PEM-no tether (i-iii) and PEM-DOTAP tether (iv-vi). Representative […] slice (i and iv), maximum z-projection of 5 slices at one time point (ii and v), and maximum t-projection after 20 frames (iii and vi) are shown at 60× magnification. (B) Microtentacle (arrow) imaging of MDA-MB-436 cells seeded on micro-slides with PEM-DOTAP tether after treatment with 5 uM colchicine for 15 minutes and 1 μg/ml Taxol for 120 minutes. Maximum intensity z-projections of five […] slices at one time point are shown at 60× magnification. Scale bar represents […]
MDA-MB-436 cells were trypsinized, spun down, and resuspended in phenol red-free and serum-free DMEM. Cells were seeded on PEM coated micro-slides with 4 bilayers and PEM coated micro-slides with 4 bilayers and the addition of DOTAP (50,000 cells/channel). Cells were incubated for 1 h to allow for tethering. After 1 h, one wash was done where the existing media was gently removed from the bottom port of each channel and fresh media was added to top port. This wash was to ensure only tethered cells were analyzed. After this wash, CellMask orange cell membrane dye was added to each channel to a final concentration of 1:10,000. McTN imaging was done on an Olympus FV100 confocal laser scanning microscope at 60× magnification. Five 1 uM slices and 20 frames at a 10 sec frame rate were taken for at least five image sets for each condition. Colchicine was added to each channel at a final concentration of 5 uM and cells were imaged after 15 minutes. Taxol was added to each channel at final concentration of 1 μg/ml and imaged after 120 minutes. Cells were again imaged with five […] slices and 20 frames at a 10 second frame rate.

[6] = system: MDA-436 breast tumor cells; experiment: Quantitative image analysis of time-dependent McTN metrics and tip tracking (FIG. 36-37); assay type: cell-based, human
Source text: FIG. 36. Quantitative image analysis of time-dependent McTN metrics. A) MDA-436 breast tumor cells that were tethered with a PEM+DOTAP surface coating were imaged for McTNs with confocal microscopy (5 z-slices of 1 μm, max intensity projection shown). A custom MATLAB algorithm was applied to the image data to find the cell periphery (Perimeter trace) and then locate local points of maximum perimeter curvature (McTN Tracker). B) Analyzing cells at 10 s timepoints allows the dynamic movement of McTNs under vehicle-treated conditions to be appreciated (blue lines).
FIG. 37. Tracking individual McTN tip motion. Applying a particle-tracking algorithm to the McTN tips identified in FIG. 36 allows the movement of individual McTN tips (color-coded) to be followed over time.
Using breast cancer cell lines, we developed a custom MATLAB algorithm to identify McTN ends (points of local surface curvature maxima on a perimeter trace). Combined with automated identification of the cell body (erosion mask), both the number and lengths of individual McTNs can be defined. Now that we have succeeded in tethering tumor cells to PEM-DOTAP surfaces, it dramatically improves our ability to collect time-lapse confocal imaging without the blurring that occurs with even minor cell drift. […] By comparison, the variance of all three measures is reduced in Taxol-treated cells, reflecting the effect of stabilizing microtubules. Individual McTN tips can also be followed with MATLAB particle tracking to quantitate McTN dynamics (FIG. 37).

MDA-436 cells = experiment: Automated McTN analysis (FIG. 24); assay type: cell-based, human; conditions: at least 10 random cells
Source text: FIG. 24. Automated McTN analysis. […] A gradient vector flow snake algorithm was used to define the cell edges and a local curvature maxima effectively identified McTN ends (yellow diamonds). […] This automated cell shape analysis will also enable calculations of average McTN length, curvature, etc. that will yield more multi-dimensional data for McTN studies.

[7] = system: stem cell characteristics; conditions: Gupta et al. 2009; cited from earlier work
CTCs = conditions: neoadjuvant treatment in advance of surgery; cited from earlier work
tumor cells [8] = conditions: tumor cells treated with taxol; cited from earlier work
[9] = first wash, 4 PMA/PAAm bilayers, 1 h tethering
[10] = Taxol 1 μg/ml, PEM+DOTAP tethered
[11] = Taxol, McTN tip particle tracking
[12] = terminal lipid on 4 PMA/PAAm bilayers, successive washes

CCCCCCCC/C=C\CCCCCCCC(=O)OCC(C[N+](C)(C)C)OC(=O)CCCCCCC/C=C\CCCCCCCC (stereo not shown) [DOTAP, 1,2-dioleoyl-3-trimethylammonium-propane]
cell retention (MCF-7 cells; after five washes): 15% | cell retention (MCF-7 cells; [9]): 80% | cell retention (MDA-MB-436 cells [1]; [9]): 38% | retention of tethered tumor cells (tumor cells [2]): dramatically improves retention of tethered tumor cells during multiple washes; also recorded: significantly improves initial tethering efficiency and resistance to washing

C/C1=C\[C@H](C)C[C@H](C)OC(=O)C[C@H](c2ccc(O)cc2)NC(=O)[C@@H](Cc2c(Br)[nH]c3ccccc23)N(C)C(=O)[C@H](C)NC(=O)[C@@H](C)C1 [Jasplakinolide]
McTNs (SkBr3 cells [3]): strongly promote McTNs | levels of McTNs (SkBr3 cells [4]; Jas 500 nM): increases levels of McTNs dramatically | Predicted stemness & McTN effect (Patient-derived cells): Decrease

CC(=O)O[C@@]12CO[C@@H]1C[C@H](O)[C@@]1(C)C(=O)[C@H](O)C3=C(C)[C@@H](OC(=O)[C@H](O)[C@@H](NC(=O)OC(C)(C)C)c4ccccc4)C[C@@](O)([C@@H](OC(=O)c4ccccc4)[C@H]21)C3(C)C [Docetaxel]
Predicted stemness & McTN effect (Patient-derived cells): Increase

O=S(=O)(c1cccc2c(I)cccc12)N1CCCNCC1 [ML-7]
Predicted stemness & McTN effect (Patient-derived cells): Decrease

C=C1C(=O)O[C@@H]2/C=C(\C)CC/C=C(\C)CC[C@@H]12 [Costunolide]
Predicted stemness & McTN effect (Patient-derived cells): Decrease

O=S(=O)(c1cccc2cnccc12)N1CCCNCC1 [Fasudil]
Predicted stemness & McTN effect (Patient-derived cells): Increase

CN(C)S(=O)(=O)c1ccc2c(c1)/C(=C/c1cc3c([nH]1)CCCC3)C(=O)N2 [SU6656]
Predicted stemness & McTN effect (Patient-derived cells): Increase

C[C@@H](N)[C@H]1CC[C@H](C(=O)Nc2ccncc2)CC1 [Y-27632]
stem cell conversion (epithelial cells): conversion is occurring | Predicted stemness & McTN effect (Patient-derived cells): Increase

CC[C@]1(O)C[C@@H]2CN(CCc3c([nH]c4ccccc34)[C@@](C(=O)OC)(c3cc4c(cc3OC)N(C)[C@H]3[C@@](O)(C(=O)OC)[C@H](OC(C)=O)[C@]5(CC)C=CCN6CC[C@]43[C@@H]65)C2)C1 [Vinblastine]
Predicted stemness & McTN effect (Patient-derived cells): Decrease

C/C(=C\c1csc(C)n1)[C@@H]1C[C@@H]2O[C@]2(C)CCC[C@H](C)[C@H](O)[C@@H](C)C(=O)C(C)(C)[C@@H](O)CC(=O)N1 [Ixabepilone]
Predicted stemness & McTN effect (Patient-derived cells): Increase

COc1cc2c(c(OC)c1OC)-c1ccc(OC)c(=O)cc1[C@@H](NC(C)=O)CC2 [Colchicine]
McTN formation (MDA-MB-436 cells [5]; colchicine 5 uM, 15 minutes): decreases microtentacles; also recorded: inhibited McTN formation | McTN dynamics over time (MDA-MB-436 cells [5]; colchicine): shrinks McTNs and enhances cell blebbing | McTNs ([6]; Colchicine 50 μM, PEM+DOTAP tethered): completely inhibits McTN generation; also recorded: completely eliminates McTNs | average number of McTNs per cell (MDA-436 cells; colchicine 50 μM): significantly reduces the average number of McTNs per cell | Predicted stemness & McTN effect (Patient-derived cells): Decrease

CC(=O)O[C@H]1C(=O)[C@@]2(C)[C@H]([C@H](OC(=O)c3ccccc3)[C@]3(O)C[C@H](OC(=O)[C@H](O)[C@@H](NC(=O)c4ccccc4)c4ccccc4)C(C)=C1C3(C)C)[C@]1(OC(C)=O)CO[C@@H]1C[C@@H]2O [Paclitaxel]
McTNs (SkBr3 cells [3]): strongly promote McTNs | McTN formation (MDA-MB-436 cells [5]; Taxol 1 μg/ml, 120 minutes): enhances McTNs; also recorded: enhanced McTN formation | McTN dynamics over time (MDA-MB-436 cells [5]; taxol): hyperstabilizes McTNs dramatically decreasing their dynamics | stem cell characteristics and tumor metastasis [7]: increases stem cell characteristics and even tumor metastasis | range of McTN measurements and variance of all metrics ([6]; Taxol 1 μg/ml, 10 s timepoints): reduced; also recorded: strongly reduces the range of McTN measurements and the variance of all metrics | McTN length [6, 10]: increases | number of McTNs per cell >4 μm from cell periphery (McTN number) [6, 10]: increases the number of McTNs per cell | McTN persistence (area over which a McTN moves) [6, 11]: make McTNs more persistent | average McTN speed [6, 11]: reduce average McTN speed | levels of McTNs (SkBr3 cells [4]; Paclitaxel-Taxol 1.2 μM): increases levels of McTNs dramatically | increase of CTCs (CTCs): more than 1000 fold | average number of McTNs per cell (MDA-436 cells; paclitaxel 1 μM): increases McTNs, but this does not reach significance | lung trapping of tumor cells (tumor cells [8]): greater lung trapping of tumor cells | Predicted stemness & McTN effect (Patient-derived cells): Increase

CCCCCCCC/C=C\CCCCCCCC(=O)OC[C@H](COP(=O)([O-])OCC[N+](C)(C)C)OC(=O)CCCCCCC/C=C\CCCCCCCC [DOPC, 1,2-dioleoyl-sn-glycero-3-phosphocholine]
tethering of tumor cells (MCF-7 cells; [12]): unable to effectively tether either type of tumor cells | tethering of tumor cells (MDA-MB-436 cells [1]; [12]): unable to effectively tether either type of tumor cells
